The target in assay [1] is T1, Nonstructural protein 5 (Dengue virus, UniProt V5TFZ2). The experiment in a line: Inhibition of DENV2 2'-O-methyltransferase using m7G*pppA-RNA as substrate. Also noted: species or system dengue virus type 2.
In assay [2] the target is T1, Nonstructural protein 5. The experiment in a line: Inhibition of DENV3 2'-O-methyltransferase using m7G*pppA-RNA as substrate. More on the design: species or system dengue virus type 3.
A short description of assay [3]: Inhibition of DENV2 N7-methyltransferase using G*pppA-RNA as substrate. Also noted: species or system dengue virus type 2.
Assay [4] is described as follows: Inhibition of DENV3 N7-methyltransferase using G*pppA-RNA as substrate. Also noted: species or system dengue virus type 3.
Assay [5] deals with dengue virus type 1. The experiment in a line: Antiviral activity against DENV1 infected in African green monkey Vero cells assessed as virus yield reduction after 48 hrs by measuring plaque forming units titration. In kind it is functional, organism-based.
The subject of assay [6] is dengue virus type 2. The experiment in a line: Antiviral activity against DENV2 infected in African green monkey Vero cells assessed as virus yield reduction after 48 hrs by measuring plaque forming units titration. In kind it is functional, organism-based.
Assay [7] deals with dengue virus type 3. The experiment in a line: Antiviral activity against DENV3 infected in African green monkey Vero cells assessed as virus yield reduction after 48 hrs by measuring plaque forming units titration. The format is functional, organism-based.
Assay [8] relates to dengue virus type 4. The experiment in a line: Antiviral activity against DENV4 infected in African green monkey Vero cells assessed as virus yield reduction after 48 hrs by measuring plaque forming units titration. In kind it is functional, organism-based.
The test system of assay [9] is dengue virus type 1. The experiment in a line: Antiviral activity against DENV1 FGA/89 infected in human Huh7.5 cells after 72 hrs by flow cytometric analysis. In kind it is functional, organism-based. The conditions noted are these: FGA/89, Huh7.5, 72 h. In general terms: In flow cytometry, cells or beads pass a laser one at a time.
For assay [10], the system named is dengue virus type 2. The experiment in a line: Antiviral activity against DENV2 ICC265 infected in human Huh7.5 cells after 72 hrs by flow cytometric analysis. The format is functional, organism-based. Particulars: ICC265, Huh7.5, 72 h.
Assay [11] relates to dengue virus type 3. The experiment in a line: Antiviral activity against DENV3 5532 infected in human Huh7.5 cells after 72 hrs by flow cytometric analysis. Particulars: Dengue virus, 5532, Huh7.5, 72 h. The format is functional, organism-based.
The subject of assay [12] is dengue virus type 4. The experiment in a line: Antiviral activity against DENV4 TVP360 infected in human Huh7.5 cells after 72 hrs by flow cytometric analysis. The conditions noted are these: TVP360, Huh7.5, 72 h. In kind it is functional, organism-based.
Assay [13] deals with dengue virus type 2. The experiment in a line: Antiviral activity against DENV2 ICC265 infected in human Huh7 cells assessed as reduction in viral titer by plaque assay. In kind it is functional, organism-based. The conditions noted are these: ICC265, Huh-7.
Assay [14] deals with dengue virus type 1. The experiment in a line: Antiviral activity against DENV1 infected in human HepG2 cells assessed as reduction in viral infection at 20 uM after 24 to 72 hrs by FFU assay relative to control. In kind it is functional. More on the design: scale not given: the % may be the effect or the level left.
In assay [15] the test system is dengue virus type 2. The experiment in a line: Antiviral activity against DENV2 infected in human HepG2 cells assessed as reduction in viral infection at 20 uM after 24 to 72 hrs by FFU assay relative to control. More on the design: scale not given: the % may be the effect or the level left. The format is functional.
For assay [16], the system named is dengue virus type 3. The experiment in a line: Antiviral activity against DENV3 infected in human HepG2 cells assessed as reduction in viral infection at 20 uM after 24 to 72 hrs by FFU assay relative to control. The format is functional. More on the design: scale not given: the % may be the effect or the level left.
Assay [17] relates to dengue virus type 4. The experiment in a line: Antiviral activity against DENV4 infected in human HepG2 cells assessed as reduction in viral infection at 20 uM after 24 to 72 hrs by FFU assay relative to control. The format is functional. More on the design: scale not given: the % may be the effect or the level left.
Assay [18] has as its system dengue virus type 2. The experiment in a line: Antiviral activity against DENV2 infected in […] BHK-15 cells after 48 hrs by luciferase reporter gene assay. The format is functional, organism-based. The conditions noted are these: BHK15, 48 h. A general note: In a reporter assay the amount or activity of a reporter protein is the signal.
Assay [19] concerns dengue virus type 2. The experiment in a line: Antiviral activity against DENV2 infected in human HepG2 cells. In kind it is functional, organism-based.
Assay [20] has as its system dengue virus type 1. The experiment in a line: Antiviral activity against DENV1 infected in human A549 cells after 3 days by focus reduction assay. In kind it is functional, organism-based. The conditions noted are these: A549, 72 h.
Assay [21] concerns dengue virus type 1. The experiment in a line: Antiviral activity against DENV1 after 48 hrs by focus reduction assay. In kind it is functional, organism-based.
For assay [22], the system named is dengue virus type 2. The experiment in a line: Antiviral activity against DENV2 after 48 hrs by focus reduction assay. In kind it is functional, organism-based.
Assay [23] relates to dengue virus type 3. The experiment in a line: Antiviral activity against DENV3 after 48 hrs by focus reduction assay. The format is functional, organism-based.
In assay [24] the test system is dengue virus type 4. The experiment in a line: Antiviral activity against DENV4 after 48 hrs by focus reduction assay. In kind it is functional, organism-based.
Assay [25] relates to dengue virus type 1. The experiment in a line: Antiviral activity against DENV1 02-20 infected in African green monkey Vero cells after 3 days by focus reduction assay. The format is functional, organism-based. The conditions noted are these: 02-20, Vero, 72 h.
Assay [26] relates to dengue virus type 2. The experiment in a line: Antiviral activity against DENV2 16681 infected in African green monkey Vero cells after 3 days by focus reduction assay. In kind it is functional, organism-based. The conditions noted are these: Dengue virus, 16681, Vero, 72 h.
Assay [27] concerns dengue virus type 3. The experiment in a line: Antiviral activity against DENV3 00-40 infected in African green monkey Vero cells after 3 days by focus reduction assay. The format is functional, organism-based. The conditions noted are these: 00-40, Vero, 72 h.
Assay [28] has as its system dengue virus type 4. The experiment in a line: Antiviral activity against DENV4 09-48 infected in African green monkey Vero cells after 3 days by focus reduction assay. The conditions noted are these: 09-48, Vero, 72 h. The format is functional, organism-based.
Assay [29] concerns dengue virus type 2. The experiment in a line: Antiviral activity against DENV2 infected in African green monkey Vero cells by focus formation unit reduction assay. The format is functional, organism-based.
In assay [30] the test system is dengue virus type 2. The experiment in a line: Virucidal activity against DENV2. The format is functional, organism-based.
The subject of assay [31] is dengue virus type 2. The experiment in a line: Antiviral activity against DENV2 infected in HEK293 cells assessed as reduction in plaque formation. The format is functional, organism-based.
The test system of assay [32] is dengue virus type 2. The experiment in a line: Antiviral activity against DENV2 16681 infected in HEK293 cells after 72 hrs by luciferase reporter gene assay. In kind it is functional, organism-based. The conditions noted are these: Dengue virus, 16681, HEK293, 72 h.

pEC50, pIC50: −log10 of the molar value. In brackets after ≈: the same amount, converted by molar mass.

In general, pIC50 refers to the negative decadic logarithm of the IC50, by convention in mol/L. The term pEC50 denotes the EC50 on a negative log10 scale, so that one unit is a factor of ten. For orientation: IC50 means the point on the concentration scale where inhibition reaches its midpoint.

T1 sequence (V5TFZ2 whole entry): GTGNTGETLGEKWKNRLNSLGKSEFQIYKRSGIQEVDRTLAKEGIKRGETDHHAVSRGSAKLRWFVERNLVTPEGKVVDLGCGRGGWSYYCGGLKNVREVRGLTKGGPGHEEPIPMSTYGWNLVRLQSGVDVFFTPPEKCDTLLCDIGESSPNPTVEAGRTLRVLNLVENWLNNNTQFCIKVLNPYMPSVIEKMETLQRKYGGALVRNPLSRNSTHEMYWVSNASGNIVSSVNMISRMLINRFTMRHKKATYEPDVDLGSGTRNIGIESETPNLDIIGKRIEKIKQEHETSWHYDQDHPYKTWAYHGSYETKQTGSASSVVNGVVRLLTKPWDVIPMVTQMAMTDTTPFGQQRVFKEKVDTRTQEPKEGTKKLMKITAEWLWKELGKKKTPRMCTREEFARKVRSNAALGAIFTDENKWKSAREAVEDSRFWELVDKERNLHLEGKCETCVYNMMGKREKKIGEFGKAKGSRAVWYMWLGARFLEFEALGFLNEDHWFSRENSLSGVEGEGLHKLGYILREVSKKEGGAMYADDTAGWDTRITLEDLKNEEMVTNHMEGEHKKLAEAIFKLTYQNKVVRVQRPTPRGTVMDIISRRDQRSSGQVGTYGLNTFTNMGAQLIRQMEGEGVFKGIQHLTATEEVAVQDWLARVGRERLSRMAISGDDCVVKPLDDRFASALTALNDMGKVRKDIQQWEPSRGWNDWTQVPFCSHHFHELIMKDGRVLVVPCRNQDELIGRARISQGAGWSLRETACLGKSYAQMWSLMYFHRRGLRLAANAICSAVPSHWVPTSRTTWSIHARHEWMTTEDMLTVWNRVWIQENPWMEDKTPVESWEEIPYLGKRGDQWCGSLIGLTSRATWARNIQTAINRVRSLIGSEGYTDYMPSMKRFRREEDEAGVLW

Turning to `CC1=C(Nc2c(C)cc(O)cc2O)C(=O)C=c2oc3c(c21)C(C)=C(Nc1c(C)cc(O)cc1O)C(=O)C=3`, the negative logarithm of the IC50 (pIC50) was 4.68 to 5.64 in [1], 4.68 to 5.64 in [2], 4.49 to 4.55 in [3] and 4.49 to 4.55 in [4].
As for `C=CCn1c2ccccc2c(=O)c2cc(Cl)ccc21`, the pEC50 in [5], in assay [6], in [7] and in [8] was 4.57 to 4.90 throughout.
On to `O=C1C[C@@H](c2ccc(O)cc2)Oc2cc(O)cc(O)c21` [NARINGENIN], for which the pEC50 in assay [9], in [10], in assay [11] and in assay [12] was 3.75 to 4.45 in each case.
Regarding `COc1cc2c(c(OC)c1OC)-c1c(cc(OC)c(OC)c1OC)C[C@H](C)[C@H](C)C2` [SCHISANDRIN A], the pEC50 in assay [13] was 4.55.
For `COc1c(O)cc2oc3cc(O)c(CC=C(C)C)c(O)c3c(=O)c2c1CC=C(C)C` [MANGOSTIN], the Activity in assay [14], in assay [15], in [16] and in assay [17] was 47 - 55% in each case. Moreover, the negative logarithm of the EC50 (pEC50) in assay [18] is 5.00.
The compound `COc1ccc([C@@H]2CC(=O)c3c(O)cc(O[C@@H]4O[C@H](CO[C@@H]5OC[C@](O)(CO)[C@H]5O)[C@@H](O)[C@H](O)[C@H]4O)cc3O2)cc1` registered a half-maximal inhibitory concentration (IC50) in [19] of 13.1 µg/mL (≈ 22.6 µM).
`CC[C@H]1CN2CCc3c([nH]c4ccccc34)[C@H]2C[C@@H]1/C(=C\OC)C(=O)OC` [HIRSUTINE] gave a pEC50 in assay [20] of 5.72.
`C[C@H]1CCC/C=C/[C@@H]2C[C@H](O)C[C@H]2[C@H](O)/C=C/C(=O)O1` [BREFELDIN A]: the negative logarithm of the EC50 (pEC50) in assay [21], in assay [22], in assay [23] and in [24] was 4.18 to 4.26 in each case.
Consider `CC(C)C[C@H]1C(=O)N2CCC[C@H]2[C@]2(O)O[C@](NC(=O)[C@@H]3C=C4c5cccc6[nH]c(Br)c(c56)C[C@H]4N(C)C3)(C(C)C)C(=O)N12` [BROMOCRIPTINE], for which the pEC50 in assay [25] was 5.80; in [26], 5.92 to 6.10; in assay [27], 5.92 to 6.10; in assay [28], 5.92 to 6.10.
With `O=C(O)[C@H]1O[C@@H](Oc2cc3oc(-c4ccccc4)cc(=O)c3c(O)c2O)[C@H](O)[C@@H](O)[C@@H]1O` [BAICALIN], the IC50 in assay [29] is 13.5 µg/mL (≈ 30.2 µM); in [30], 8.74 µg/mL (≈ 19.6 µM).
In the case of `Cc1cnc(NC(=O)c2cc(S(=O)(=O)N(C)C)ccc2N2CCCC2)s1`, the pEC50 in assay [31] is 6.07.
In assay [32], `CN1CCN(C2Cc3ccc(F)cc3Sc3ccc(O)cc32)CC1` (configuration not stated) showed a pIC50 of 5.92.

These data come from ChEMBL document CHEMBL4396891, “Recent update on anti-dengue drug discovery” (Eur J Med Chem, 2019).
